Source: PMC7749516, “Safety and nonclinical and clinical pharmacokinetics of PC945, a novel inhaled triazole antifungal agent” (Pharmacology Research & Perspectives, 2020)

Experiment: Toxicokinetics/toxicity in dogs, daily 2-hour inhalation for 14 days (plasma)
Settings: for Ro (accumulation ratio): AUC0‐24h (Day14)/AUC0‐24h (Day 1)
[1] = female dogs, Day 14 of inhaled 1.7 mg/kg/day, mean
[2] = female dogs, Day 14 of inhaled 5.3 mg/kg/day, mean
[3] = female dogs, Day 14 of inhaled 18.1 mg/kg/day, mean
[4] = female dogs, single inhaled dose 1.7 mg/kg, mean ± SD
[5] = female dogs, single inhaled dose 5.3 mg/kg, mean ± SD
[6] = female dogs, single inhaled dose 18.1 mg/kg, mean ± SD
[7] = male dogs, Day 14 of inhaled 1.7 mg/kg/day, mean
[8] = male dogs, Day 14 of inhaled 5.3 mg/kg/day, mean
[9] = male dogs, Day 14 of inhaled 18.1 mg/kg/day, mean
[10] = male dogs, single inhaled dose 1.7 mg/kg, mean ± SD
[11] = male dogs, single inhaled dose 5.3 mg/kg, mean ± SD
[12] = male dogs, single inhaled dose 18.1 mg/kg, mean ± SD

Source text: Each dose was inhaled over a 2‐hour period once daily for 14 days.
Lower limit of quantification of the assay was 10 pg/mL for clinical samples and 100 pg/mL for rat and dog plasma samples.

SMILES: Cc1cc(N2CCN(c3ccc(C(=O)Nc4ccc(F)cc4)cc3)CC2)ccc1OC[C@@H]1CO[C@@](Cn2cncn2)(c2ccc(F)cc2F)C1 [PC945]
- Margin over the clinical AUC following a 5 mg dose (dog, highest dose tested): threefold
- Time of C max after a single dose (dogs, after the 2‐hour dosing period): immediately
- Systemic toxicity (dogs, highest dose tested): No systemic toxicity
- Ro (accumulation ratio) (female dogs, 1.7 mg/kg/day): 2.27
- Ro (accumulation ratio) (female dogs, 5.3 mg/kg/day): 1.88
- Ro (accumulation ratio) (female dogs, 18.1 mg/kg/day): 1.26
- AUC0‐24h [1]: 27.7 ng·h/mL
- C max [1]: 2.3 ng/mL
- AUC0‐24h [2]: 73.3 ng·h/mL
- C max [2]: 5.5 ng/mL
- AUC0‐24h [3]: 114 ng·h/mL
- C max [3]: 7.8 ng/mL
- AUC0‐24h [4]: 12.2 ± 2.9 ng·h/mL
- C max [4]: 1.5 ± 0.5 ng/mL
- AUC0‐24h [5]: 39.0 ± 2.7 ng·h/mL
- C max [5]: 4.3 ± 0.7 ng/mL
- AUC0‐24h [6]: 90.6 ± 6.7 ng·h/mL
- C max [6]: 10.2 ± 1.3 ng/mL
- Ro (accumulation ratio) (male dogs, 1.7 mg/kg/day): 2.06
- Ro (accumulation ratio) (male dogs, 5.3 mg/kg/day): 1.84
- Ro (accumulation ratio) (male dogs, 18.1 mg/kg/day): 2.29
- AUC0‐24h [7]: 35.5 ng·h/mL
- C max [7]: 2.8 ng/mL
- AUC0‐24h [8]: 70.9 ng·h/mL
- C max [8]: 5.6 ng/mL
- AUC0‐24h [9]: 203 ng·h/mL
- C max [9]: 13.5 ng/mL
- AUC0‐24h [10]: 17.2 ± 3.5 ng·h/mL
- C max [10]: 2.2 ± 0.3 ng/mL
- AUC0‐24h [11]: 38.5 ± 1.8 ng·h/mL
- C max [11]: 4.6 ± 0.4 ng/mL
- AUC0‐24h [12]: 88.5 ± 25.8 ng·h/mL
- C max [12]: 9.7 ± 2.4 ng/mL
